Results as given in patent US20200055839A1 (priority 2017, published 2020).
pEC50: −log10 of the molar value.

test system: NL-RLuc virus; test: Inhibition of HIV replication (NL-RLuc virus, luciferase readout in MT-2 cells); type: cell-based; conditions: Human immunodeficiency virus 1, MT2, 120 h, MT-2 cells infected with NL-RLuc virus, 5 days of incubation, 10% FBS, at least 2 experiments
How it was run: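 EC50 derived via median effect equation from at least 2 experiments, using luciferase expression as virus-growth readout. Replication-competent NL-RLuc reporter virus (nef partly replaced by Renilla luciferase) infected MT-2 cells with serial compound dilutions; 5-day incubation in RPMI 1640 plus 10% FBS.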

| SMILES | pEC50 |
| --- | --- |
| Cc1ccccc1CCOc1ncc(-c2cnc(C)c([C@H](OC(C)(C)C)C(=O)O)c2N2CCC(C)(C)CC2)cc1F [Example 385, (2S)-2-(tert-butoxy)-2-[4-(4,4-dimethylpiperidin-1-yl)-5′-fluoro-6-methyl-6′-[2-(2-methylphenyl)ethoxy]-[3,3′-bipyridine]-5-yl]acetic acid] | 8.52 |
| Cc1ncc(-c2cnc(OCC(C)C)c(Cl)c2)c(N2CCC(C)(C)CC2)c1[C@H](OC(C)(C)C)C(=O)O [Example 417, (S)-2-(tert-Butoxy)-2-(5′-chloro-4-(4,4-dimethylpiperidin-1-yl)-6′-isobutoxy-6-methyl-[3,3′-bipyridin]-5-yl)acetic acid] | 7.92 |
| Cc1ncc(-c2ccc(OC(C)C)cn2)c(N2CCC(C)(C)CC2)c1[C@H](OC(C)(C)C)C(=O)O [Example 314, (2S)-2-(tert-butoxy)-2-[4′-(4,4-dimethylpiperidin-1-yl)-6′-methyl-5-(propan-2-yloxy)-[2,3′-bipyridine]-5′-yl]acetic acid] | 8.30 |
| Cc1ncc(-c2cnc(N(C)C)c(F)c2)c(N2CCC(C)(C)CC2)c1[C@H](OC(C)(C)C)C(=O)O [Example 114, (S)-2-(tert-Butoxy)-2-(6′-(dimethylamino)-4-(4,4-dimethylpiperidin-1-yl)-5′-fluoro-6-methyl-[3,3′-bipyridin]-5-yl)acetic acid] | 7.62 |
| CCCCOc1ccc(-c2cnc(C)c([C@H](OC(C)(C)C)C(=O)O)c2N2CCC(C)(C)CC2)nc1 [Example 313, (2S)-2-(tert-butoxy)-2-[5-butoxy-4′-(4,4-dimethylpiperidin-1-yl)-6′-methyl-[2,3′-bipyridine]-5′-yl]acetic acid] | 9.00 |
| Cc1ncc(-c2ccc(CCC(C)C)cn2)c(N2CCC(C)(C)CC2)c1[C@H](OC(C)(C)C)C(=O)O [Example 273, (S)-2-(tert-Butoxy)-2-(4′-(4,4-dimethylpiperidin-1-yl)-5-isopentyl-6′-methyl-[2, 3′-bipyridin]-5′-yl)acetic acid] | 8.40 |
| Cc1cccc(-c2cnc(C)c([C@H](OC(C)(C)C)C(=O)O)c2N2CCC(C)(C)CC2)c1F [Example 163, (2S)-2-(tert-Butoxy)-2-[4-(4,4-dimethylpiperidin-1-yl)-5-(2-fluoro-3-methylphenyl)-2-methylpyridin-3-yl]acetic acid] | 8.22 |
| Cc1ncc(-c2ccccc2)c(N2CCC(C)(C)CC2)c1[C@H](OC(C)(C)C)C(=O)O [Example 134, (2S)-2-(tert-Butoxy)-2-[4-(4,4-dimethylpiperidin-1-yl)-2-methyl-5-phenylpyridin-3-yl]acetic acid] | 8.15 |
| Cc1ncc(-c2ccc(OCCc3cccc(F)c3)c(F)c2)c(N2CCC(C)(C)CC2)c1[C@H](OC(C)(C)C)C(=O)O [Example 257, (S)-2-(tert-Butoxy)-2-(4-(4,4-dimethylpiperidin-1-yl)-5-(3-fluoro-4-(3-fluorophenethoxy)phenyl)-2-methylpyridin-3-yl)acetic acid] | 9.00 |
| CC(=O)N1CCC(Nc2nc(C)c([C@H](OC(C)(C)C)C(=O)O)c(N3CCC(C)(C)CC3)c2-c2ccc(OCCc3ccc(F)cc3)cc2)CC1 [Example 100, (S)-2-(6-((1-Acetylpiperidin-4-yl)amino)-4-(4,4-dimethylpiperidin-1-yl)-5-(4-(4-fluorophenethoxy)phenyl)-2-methylpyridin-3-yl)-2-(tert-butoxy)acetic acid] | 9.30 |
| Cc1ncc(-c2cnc(OCCc3ccccc3)c(F)c2)c(N2CCC(C)(C)CC2)c1[C@H](OC(C)(C)C)C(=O)O [Example 240, (S)-2-(tert-Butoxy)-2-(4-(4,4-dimethylpiperidin-1-yl)-5′-fluoro-6-methyl-6′-phenethoxy-[3,3′-bipyridin]-5-yl)acetic acid] | 9.00 |
| Cc1nc(Nc2ccncc2)c(-c2ccc(OCCc3ccc(F)cc3)cc2)c(N2CCC(C)(C)CC2)c1[C@H](OC(C)(C)C)C(=O)O [Example 77, (S)-2-(tert-Butoxy)-2-(4-(4,4-dimethylpiperidin-1-yl)-5-(4-(4-fluorophenethoxy)phenyl)-2-methyl-6-(pyridin-4-ylamino)pyridin-3-yl)acetic acid] | 9.22 |
| Cc1ncc(-c2cccc(Cl)c2F)c(N2CCC(C)(C)CC2)c1[C@H](OC(C)(C)C)C(=O)O [Example 145, (2S)-2-(tert-Butoxy)-2-[5-(3-chloro-2-fluorophenyl)-4-(4,4-dimethylpiperidin-1-yl)-2-methylpyridin-3-yl]acetic acid] | 8.30 |
| Cc1cc(CCOc2ncc(-c3cnc(C)c([C@H](OC(C)(C)C)C(=O)O)c3N3CCC(C)(C)CC3)cc2F)ccc1F [Example 397, (2S)-2-(tert-butoxy)-2-[4-(4,4-dimethylpiperidin-1-yl)-5′-fluoro-6′-[2-(4-fluoro-3-methylphenyl)ethoxy]-6-methyl-[3,3′-bipyridine]-5-yl]acetic acid] | 8.70 |
| Cc1ncc(-c2ccc(OCCc3ccc(F)cc3)c(F)c2F)c(N2CCC(C)(C)CC2)c1[C@H](OC(C)(C)C)C(=O)O [Example 124, (S)-2-(tert-Butoxy)-2-(5-(2,3-difluoro-4-(4-fluorophenethoxy)phenyl)-4-(4,4-dimethylpiperidin-1-yl)-2-methylpyridin-3-yl)acetic acid] | 8.70 |
| COc1ccc(-c2cnc(C)c([C@H](OC(C)(C)C)C(=O)O)c2N2CCC(C)(C)CC2)c(F)c1 [Example 181, (2S)-2-(tert-Butoxy)-2-[4-(4,4-dimethylpiperidin-1-yl)-5-(2-fluoro-4-methoxyphenyl)-2-methylpyridin-3-yl]acetic acid] | 8.22 |
| Cc1cccc(Cl)c1CCOc1ccc(-c2cnc(C)c([C@H](OC(C)(C)C)C(=O)O)c2N2CCC(C)(C)CC2)cn1 [Example 412, (S)-2-(tert-Butoxy)-2-(6′-(2-chloro-6-methylphenethoxy)-4-(4,4-dimethylpiperidin-1-yl)-6-methyl-[3, 3′-bipyridin]-5-yl)acetic acid] | 8.40 |
| COc1cc(F)c(F)c(-c2cnc(C)c([C@H](OC(C)(C)C)C(=O)O)c2N2CCC(C)(C)CC2)c1 [Example 157, (2S)-2-(tert-Butoxy)-2-[5-(2,3-difluoro-5-methoxyphenyl)-4-(4,4-dimethylpiperidin-1-yl)-2-methylpyridin-3-yl]acetic acid] | 7.66 |
| Cc1ncc(-c2cnc(OCc3ccccc3)c(F)c2)c(N2CCC(C)(C)CC2)c1[C@H](OC(C)(C)C)C(=O)O [Example 378, (2S)-2-[6′-(benzyloxy)-4-(4,4-dimethylpiperidin-1-yl)-5′-fluoro-6-methyl-[3,3′-bipyridine]-5-yl]-2-(tert-butoxy)acetic acid] | 8.70 |
| COc1ccc(CCOc2ncc(-c3cnc(C)c([C@H](OC(C)(C)C)C(=O)O)c3N3CCC(C)(C)CC3)cc2F)c(C)c1 [Example 399, (2S)-2-(tert-butoxy)-2-[4-(4,4-dimethylpiperidin-1-yl)-5′-fluoro-6′-[2-(4-methoxy-2-methylphenyl)ethoxy]-6-methyl-[3,3′-bipyridine]-5-yl]acetic acid] | 8.70 |
| Cc1cc(-c2cnc(C)c([C@H](OC(C)(C)C)C(=O)O)c2N2CCC(C)(C)CC2)nnc1OCCc1ccc(F)cc1 [Example 268, (S)-2-(tert-Butoxy)-2-(4-(4,4-dimethylpiperidin-1-yl)-5-(6-(4-fluorophenethoxy)-5-methylpyridazin-3-yl)-2-methylpyridin-3-yl)acetic acid] | 7.30 |
| Cc1cccc(CCOc2ncc(-c3cnc(C)c([C@H](OC(C)(C)C)C(=O)O)c3N3CCC(C)(C)CC3)cc2F)c1 [Example 372, (2S)-2-(tert-butoxy)-2-[4-(4,4-dimethylpiperidin-1-yl)-5′-fluoro-6-methyl-6′-[2-(3-methylphenyl)ethoxy]-[3,3′-bipyridine]-5-yl]acetic acid] | 9.00 |
| COc1c(F)cc(-c2c(CN3CCCC3)nc(C)c([C@H](OC(C)(C)C)C(=O)O)c2N2CCC(C)(C)CC2)cc1F [Example 198, (2S)-2-(tert-Butoxy)-2-[5-(3,5-difluoro-4-methoxyphenyl)-4-(4,4-dimethylpiperidin-1-yl)-2-methyl-6-[(pyrrolidin-1-yl)methyl]pyridin-3-yl]acetic acid] | 7.92 |
| Cc1ncc(-c2cnc(OCCc3ccccc3Cl)c(F)c2)c(N2CCC(C)(C)CC2)c1[C@H](OC(C)(C)C)C(=O)O [Example 238, (S)-2-(tert-Butoxy)-2-(6′-(2-chlorophenethoxy)-4-(4,4-dimethylpiperidin-1-yl)-5′-fluoro-6-methyl-[3, 3′-bipyridin]-5-yl)acetic acid] | 8.70 |
| CC1(C)CCN(c2c(-c3ccc(OCCc4ccc(F)cc4)cc3)cnc(CO)c2[C@H](OC(C)(C)C)C(=O)O)CC1 [Example 8, (S)-2-(tert-Butoxy)-2-(4-(4,4-dimethylpiperidin-1-yl)-5-(4-(4-fluorophenethoxy)phenyl)-2-(hydroxymethyl)pyridin-3-yl)acetic acid] | 8.52 |
| Cc1ncc(-c2ccc(OCCc3cc(F)cc(F)c3)cn2)c(N2CCC(C)(C)CC2)c1[C@H](OC(C)(C)C)C(=O)O [Example 323, (2S)-2-(tert-butoxy)-2-{5-[2-(3,5-difluorophenyl)ethoxy]-4′-(4,4-dimethylpiperidin-1-yl)-6′-methyl-[2,3′-bipyridine]-5′-yl}acetic acid] | 9.00 |
| Cc1nc(CN2CCC3(CCC3)CC2)c(-c2cc(F)c(F)c(F)c2)c(N2CCC(C)(C)CC2)c1[C@H](OC(C)(C)C)C(=O)O [Example 193, (2S)-2-[6-({7-Azaspiro[3.5]nonan-7-yl}methyl)-4-(4,4-dimethylpiperidin-1-yl)-2-methyl-5-(3,4,5-trifluorophenyl)pyridin-3-yl]-2-(tert-butoxy)acetic acid] | 8.40 |

same assay, conditions: MT-2 cells infected with NL-RLuc virus, 5 days of incubation, 10% FBS, at least 2 experiments

| SMILES | pEC50 |
| --- | --- |
| Cc1nc(N)c(-c2ccc(OCCc3ccc(F)cc3)c(F)c2F)c(N2CCC(C)(C)CC2)c1[C@H](OC(C)(C)C)C(=O)O (single isomer, unassigned) [Example 71] | 8.70 |
